In brackets after ≈: the same amount, converted by molar mass.
Tests used:
Fusarium graminearum [1] = assay: Antifungal activity against Fusarium graminearum by microbroth dilution assay; format: functional
Aspergillus flavus = assay: Antifungal activity against Aspergillus flavus after 12 to 18 hrs; format: functional
Fusarium graminearum [2] = assay: Antifungal activity against Fusarium graminearum after 12 to 18 hrs; format: functional
Escherichia coli [3] = assay: Antibacterial activity against Escherichia coli ATCC 25922 after 12 to 18 hrs; format: functional
Staphylococcus aureus [4] = assay: Antibacterial activity against Staphylococcus aureus ATCC 25923 after 12 to 18 hrs; format: functional
Escherichia coli [5] = assay: Antibacterial activity against Escherichia coli TG1 by microbroth dilution assay; format: functional
Staphylococcus aureus [6] = assay: Antibacterial activity against Staphylococcus aureus ATCC 25923 by microbroth dilution assay; format: functional
Pseudomonas aeruginosa = assay: Antibacterial activity against Pseudomonas aeruginosa ATCC 27853 by microbroth dilution assay; format: functional
Enterococcus faecalis = assay: Antibacterial activity against Enterococcus faecalis ATCC 29212 by microbroth dilution assay; format: functional
Klebsiella pneumoniae [7] = assay: Antibacterial activity against Klebsiella pneumoniae […] by microbroth dilution assay; format: functional
Klebsiella pneumoniae [8] = assay: Antibacterial activity against Klebsiella pneumoniae ATCC 700603 by microbroth dilution assay; format: functional
Rhodotorula mucilaginosa = assay: Antifungal activity against Rhodotorula pilimanae by microbroth dilution assay; format: functional
Candida albicans = assay: Antifungal activity against Candida albicans by microbroth dilution assay; format: functional
Saccharomyces cerevisiae = assay: Antifungal activity against Saccharomyces cerevisiae W303 by microbroth dilution assay; format: functional
Fusarium oxysporum = assay: Antifungal activity against Fusarium oxysporum by microbroth dilution assay; format: functional
Ulocladium = assay: Antifungal activity against Ulocladium spp. by microbroth dilution assay; format: functional; settings: Alternaria sect. Ulocladium
[9] = tested on: Globisporangium irregulare; assay: Antifungal activity against Pythium irregulare by microbroth dilution assay; format: functional
Globisporangium ultimum = assay: Antifungal activity against Pythium ultimum by microbroth dilution assay; format: functional
Phytophthora nicotianae = assay: Antifungal activity against Phytophthora parasitica by microbroth dilution assay; format: functional
Rhizopus stolonifer = assay: Antifungal activity against Rhizopus stolonifer by microbroth dilution assay; format: functional
[10] = tested on: Cladosporium cladosporioides; assay: Antifungal activity against Cladosporium cladosporioides by microbroth dilution assay; format: functional
Curvularia brachyspora = assay: Antifungal activity against Curvularia brachyspora by microbroth dilution assay; format: functional
Botrytis cinerea = assay: Antifungal activity against Bortrytis cinerea by microbroth dilution assay; format: functional
Phoma = assay: Antifungal activity against Phoma spp. by microbroth dilution assay; format: functional
[11] = Hemolytic activity in sheep RBC relative to control; format: ADME, cell-based, Ovis aries, Erythrocyte; settings: sheep red blood cells (erythrocytes), read-out: Activity

| SMILES | MIC (Fusarium graminearum [1]) [µg/mL] | MIC (Aspergillus flavus) [µg/mL] | MIC (Fusarium graminearum [2]) [µg/mL] | MIC (Escherichia coli [3]) [µg/mL] | MIC (Staphylococcus aureus [4]) [µg/mL] | further results |
| --- | --- | --- | --- | --- | --- | --- |
| CCCCCCCCO[C@H]1[C@@H](O[C@@H]2[C@@H](O)[C@H](O[C@H]3O[C@H](CN)[C@@H](O)[C@H](O)[C@H]3N)[C@@H](N)C[C@H]2N)O[C@H](CO)[C@@H](O)[C@@H]1O | 20 (≈ 33.5 µM) |  |  |  |  |  |
| CCCCCCCCO[C@@H]1[C@@H](O)[C@@H](O[C@@H]2[C@@H](O)[C@H](O[C@H]3O[C@H](CN)[C@@H](O)[C@H](O)[C@H]3N)[C@@H](N)C[C@H]2N)O[C@H](CO)[C@H]1O | 62.5 (≈ 105 µM) |  |  |  |  |  |
| CCCCCCCCO[C@H]1[C@H](O)[C@@H](N)[C@@H](O[C@H]2[C@H](O)[C@@H](O[C@H]3O[C@H](CO)[C@@H](O)[C@H](O)[C@H]3O)[C@H](N)C[C@@H]2N)O[C@@H]1CN | > 500 |  |  |  |  |  |
| CCCCO[C@H]1[C@H](N)[C@@H](O)[C@@H](O[C@@H]2[C@@H](O)[C@H](O[C@H]3O[C@H](CN)[C@@H](O)[C@H](O)[C@H]3O)[C@@H](N)C[C@H]2N)O[C@@H]1CO |  | > 500 | ≥ 500 | ≥ 250 | 125 (≈ 231 µM) |  |
| CCCCCCCOC[C@H]1O[C@H](O[C@@H]2[C@@H](O)[C@H](O[C@H]3O[C@H](CN)[C@@H](O)[C@H](O)[C@H]3O)[C@@H](N)C[C@H]2N)[C@H](O)[C@@H](N)[C@@H]1OCCCCCCC |  | 500 (≈ 734 µM) | 15.6 (≈ 22.9 µM) | 125 (≈ 184 µM) | 125 (≈ 184 µM) |  |
| CCCCCCCCO[C@@H]1[C@@H](O[C@H]2O[C@H](CO)[C@@H](O)[C@H](O)[C@H]2O)[C@H](N)C[C@H](N)[C@H]1O[C@H]1O[C@H](CN)[C@@H](O)[C@H](O)[C@H]1N | > 500 |  |  |  |  |  |
| CCCCCCCCOC[C@H]1O[C@H](O[C@@H]2[C@@H](O)[C@H](O[C@H]3O[C@H](CN)[C@@H](O)[C@H](O)[C@H]3O)[C@@H](N)C[C@H]2N)[C@H](O)[C@@H](N)[C@@H]1OCCCCCCCC |  | > 500 | 31.3 (≈ 44.2 µM) | ≥ 250 | ≥ 250 |  |
| CCCCCCCCO[C@H]1[C@H](O)[C@@H](O)[C@@H](O[C@@H]2[C@@H](O)[C@H](O[C@H]3O[C@H](CN)[C@@H](O)[C@H](O)[C@H]3N)[C@@H](N)C[C@H]2N)O[C@@H]1C | 7.8 (≈ 13.4 µM) |  |  |  |  | MIC (Escherichia coli [5]): 125 to 250 µg/mL (≈ 215 to 431 µM); MIC (Staphylococcus aureus [6]): 250 µg/mL (≈ 431 µM); MIC (Pseudomonas aeruginosa): 250 µg/mL (≈ 431 µM); MIC (Enterococcus faecalis): 125 to 250 µg/mL (≈ 215 to 431 µM); MIC (Klebsiella pneumoniae [7]): 250 µg/mL (≈ 431 µM); MIC (Klebsiella pneumoniae [8]): 250 µg/mL (≈ 431 µM); MIC (Rhodotorula mucilaginosa): 7.8 µg/mL (≈ 13.4 µM); MIC (Candida albicans): 31.3 µg/mL (≈ 53.9 µM); MIC (Saccharomyces cerevisiae): 31.3 µg/mL (≈ 53.9 µM); MIC (Fusarium oxysporum): 7.8 µg/mL (≈ 13.4 µM); MIC (Ulocladium): 7.8 µg/mL (≈ 13.4 µM); MIC [9]: 15.6 µg/mL (≈ 26.9 µM); MIC (Globisporangium ultimum): 15.6 µg/mL (≈ 26.9 µM); MIC (Phytophthora nicotianae): 15.6 µg/mL (≈ 26.9 µM); MIC (Rhizopus stolonifer): 31.3 µg/mL (≈ 53.9 µM); MIC [10]: 31.3 µg/mL (≈ 53.9 µM); MIC (Curvularia brachyspora): 31.3 µg/mL (≈ 53.9 µM); MIC (Botrytis cinerea): 31.3 µg/mL (≈ 53.9 µM); MIC (Phoma): 31.3 µg/mL (≈ 53.9 µM); hemolysis [11]: < 20% |
| CCCCOC[C@H]1O[C@H](O[C@@H]2[C@@H](O)[C@H](O[C@H]3O[C@H](CN)[C@@H](O)[C@H](O)[C@H]3O)[C@@H](N)C[C@H]2N)[C@H](O)[C@@H](N)[C@@H]1OCCCC |  | > 500 | 125 (≈ 209 µM) | ≥ 250 | ≥ 250 |  |
| CCCCCCO[C@H]1[C@H](N)[C@@H](O)[C@@H](O[C@@H]2[C@@H](O)[C@H](O[C@H]3O[C@H](CN)[C@@H](O)[C@H](O)[C@H]3O)[C@@H](N)C[C@H]2N)O[C@@H]1CO |  | > 500 | 31.3 (≈ 55 µM) | ≥ 250 | 64 (≈ 113 µM) |  |
| CCCCCCOC[C@H]1O[C@H](O[C@@H]2[C@@H](O)[C@H](O[C@H]3O[C@H](CN)[C@@H](O)[C@H](O)[C@H]3O)[C@@H](N)C[C@H]2N)[C@H](O)[C@@H](N)[C@@H]1OCCCCCC |  | 500 (≈ 766 µM) | 15.6 (≈ 23.9 µM) | ≥ 250 | 64 (≈ 98 µM) |  |
